Peptide text beside a SMILES is read from it.
Assay: MTT cell viability (cytotoxicity)
Type: cell-based
Settings: human, Caco-2 cells (1 × 10^4), synthetic peptides 0.05 mg/mL, no TbOOH, mean ± SD of at least three experiments, read-out: Percentage of Cell Viability, None (c)

Point of comparison: `CC[C@H](C)[C@H](NC(=O)[C@H](CCC(=O)O)NC(=O)[C@@H]1CCCN1C(=O)[C@@H]1CCCN1C(=O)[C@H](CO)NC(=O)[C@H](CCC(=O)O)NC(=O)[C@@H](NC(=O)[C@@H](N)C(C)C)[C@@H](C)CC)C(=O)N[C@@H](CC(N)=O)C(=O)N[C@H](C(=O)N[C@H](C(=O)N[C@@H](CCC(N)=O)C(=O)O)C(C)C)[C@@H](C)O` [V-12-Q] (H-VIESPPEINTVQ-OH), viability at 24 h, 50 µg/mL 113 ± 3.52%. Against it:
- CC[C@H](C)[C@H](NC(=O)[C@@H](NC(=O)[C@H](CC(N)=O)NC(=O)[C@@H](NC(=O)[C@@H](NC(=O)[C@@H]1CCCN1C(=O)[C@@H](NC(=O)[C@H](CCC(=O)O)NC(=O)[C@@H](NC(=O)[C@H](CCCCN)NC(=O)[C@@H](N)CC(=O)O)[C@@H](C)O)[C@@H](C)CC)[C@@H](C)O)[C@@H](C)CC)[C@@H](C)O)C(=O)N[C@@H](C)C(=O)N[C@@H](CO)C(=O)NCC(=O)N[C@@H](CCC(=O)O)C(=O)N1CCC[C@H]1C(=O)N[C@H](C(=O)O)[C@@H](C)O [D-17-T] (H-DKTEIPTINTIASGEPT-OH) — within error, 104 ± 5.62%
- CC(C)C[C@H](NC(=O)[C@H](Cc1ccccc1)NC(=O)[C@@H]1CCCN1C(=O)[C@@H]1CCCN1C(=O)[C@@H](NC(=O)[C@@H](N)C(C)C)C(C)C)C(=O)N[C@@H](CCC(N)=O)C(=O)N1CCC[C@H]1C(=O)N[C@@H](CCC(=O)O)C(=O)O [V-9-E] (H-VVPPFLQPE-OH) — within error, 107 ± 8.02%
- CSCC[C@H](NC(=O)[C@H](Cc1c[nH]c2ccccc12)NC(=O)[C@@H](N)CO)C(=O)N[C@@H](Cc1c[nH]cn1)C(=O)N[C@@H](CCC(N)=O)C(=O)N1CCC[C@H]1C(=O)N[C@@H](Cc1c[nH]cn1)C(=O)N[C@@H](CCC(N)=O)C(=O)N1CCC[C@H]1C(=O)N[C@@H](CC(C)C)C(=O)N1CCC[C@H]1C(=O)N1CCC[C@H]1C(=O)N[C@H](C(=O)O)[C@@H](C)O [S-13-T] (H-SWMHQPHQPLPPT-OH) — within error, 107 ± 12.4%
- CC[C@H](C)[C@H](NC(=O)[C@H](CCC(N)=O)NC(=O)[C@H](C)NC(=O)[C@@H]1CCCN1C(=O)[C@H](CO)NC(=O)[C@H](CCCNC(=N)N)NC(=O)[C@@H](NC(=O)[C@H](C)N)C(C)C)C(=O)N[C@@H](CC(C)C)C(=O)N[C@@H](CCC(N)=O)C(=O)N[C@@H](Cc1c[nH]c2ccccc12)C(=O)N[C@@H](CCC(N)=O)C(=O)O [A-12-Q] (H-AVRSPAQILQWQ-OH) — lower, 102 ± 4.69%
- CC(C)C[C@H](NC(=O)[C@H](Cc1ccc(O)cc1)NC(=O)[C@H](CCC(N)=O)NC(=O)[C@@H]1CCCN1C(=O)[C@H](CC(C)C)NC(=O)[C@H](C)N)C(=O)N[C@@H](CCCCN)C(=O)N[C@H](C(=O)N[C@H](C(=O)N[C@@H](Cc1ccc(O)cc1)C(=O)N[C@@H](CCC(N)=O)C(=O)N[C@@H](Cc1c[nH]cn1)C(=O)N[C@@H](CCC(N)=O)C(=O)N[C@@H](CCCCN)C(=O)O)C(C)C)[C@@H](C)O [A-14-K] (H-ALPQYLKTVYQHQK-OH) — lower, 84.4 ± 9.69%
- CC[C@H](C)[C@H](NC(=O)[C@H](CCC(=O)O)NC(=O)CNC(=O)[C@@H]1CCCN1C(=O)[C@@H](NC(=O)[C@@H](N)CC(N)=O)C(C)C)C(=O)N[C@H](C(=O)N[C@@H](CCC(=O)O)C(=O)N[C@@H](CO)C(=O)N[C@@H](CC(C)C)C(=O)O)C(C)C [N-10-L] (H-NVPGEIVESL-OH) — within error, 120 ± 15.7%
- CC[C@H](C)[C@H](N)C(=O)N[C@@H](CCC(N)=O)C(=O)N1CCC[C@H]1C(=O)N[C@@H](CCCCN)C(=O)N[C@H](C(=O)N[C@@H](CCCCN)C(=O)N[C@H](C(=O)N[C@H](C(=O)N1CCC[C@H]1C(=O)N[C@@H](Cc1ccc(O)cc1)C(=O)N[C@H](C(=O)N[C@@H](CCCNC(=N)N)C(=O)N[C@@H](Cc1ccc(O)cc1)C(=O)N[C@@H](CC(C)C)C(=O)O)C(C)C)[C@@H](C)CC)C(C)C)[C@@H](C)O [I-14-L] (H-IQPKTKVIPYVRYL-OH) — lower, 93 ± 13.6%
- CC(C)[C@H](NC(=O)[C@@H]1CCCN1C(=O)[C@H](Cc1ccc(O)cc1)NC(=O)[C@H](CCCCN)NC(=O)[C@@H]1CCCN1C(=O)[C@@H](N)Cc1ccccc1)C(=O)N[C@@H](CCC(=O)O)C(=O)N1CCC[C@H]1C(=O)N[C@@H](Cc1ccccc1)C(=O)O [F-9-F] (H-FPKYPVEPF-OH) — within error, 109 ± 12.7%
- CC[C@H](C)[C@H](NC(=O)[C@@H]1CCCN1C(=O)[C@@H](NC(=O)[C@H](Cc1ccc(O)cc1)NC(=O)[C@@H](N)CCCCN)[C@@H](C)CC)C(=O)N[C@@H](CCC(N)=O)C(=O)N[C@@H](Cc1ccc(O)cc1)C(=O)N[C@H](C(=O)N[C@@H](CC(C)C)C(=O)N[C@@H](CO)C(=O)O)C(C)C [K-10-S] (H-KYIPIQYVLS-OH) — lower, 97.3 ± 6.69%
- CC[C@H](C)[C@H](NC(=O)[C@@H]1CCCN1C(=O)CNC(=O)[C@@H]1CCCN1C(=O)[C@H](Cc1ccccc1)NC(=O)[C@@H]1CCCN1C(=O)[C@H](Cc1ccc(O)cc1)NC(=O)[C@@H](N)C(C)C)C(=O)N1CCC[C@H]1C(=O)N[C@@H](CC(N)=O)C(=O)O [V-10-N] (H-VYPFPGPIPN-OH) — within error, 111 ± 9.93%
- CC[C@H](C)[C@H](N)C(=O)N[C@@H](CC(N)=O)C(=O)N[C@@H](CC(N)=O)C(=O)N[C@@H](CCC(N)=O)C(=O)N[C@@H](Cc1ccccc1)C(=O)N[C@@H](CC(C)C)C(=O)N1CCC[C@H]1C(=O)N[C@@H](Cc1ccc(O)cc1)C(=O)N1CCC[C@H]1C(=O)N[C@@H](Cc1ccc(O)cc1)C(=O)N[C@@H](Cc1ccc(O)cc1)C(=O)N[C@@H](C)C(=O)N[C@@H](CCCCN)C(=O)N1CCC[C@H]1C(=O)N[C@@H](C)C(=O)O [I-15-A] (H-INNQFLPYPYYAKPA-OH) — lower, 104 ± 5.12%
- CC(C)C[C@H](NC(=O)[C@H](CC(C)C)NC(=O)[C@H](CC(N)=O)NC(=O)[C@H](CCC(=O)O)NC(=O)[C@H](CC(N)=O)NC(=O)[C@H](CC(C)C)NC(=O)[C@@H](NC(=O)[C@H](CCC(=O)O)NC(=O)[C@H](CCC(N)=O)NC(=O)[C@@H]1CCCN1C(=O)[C@H](CC(C)C)NC(=O)CNC(=O)[C@H](CCC(N)=O)NC(=O)[C@H](Cc1c[nH]cn1)NC(=O)[C@@H](N)CCCCN)C(C)C)C(=O)O [K-15-L] (H-KHQGLPQEVLNENLL-OH) — within error, 105 ± 14.5%
- CC[C@H](C)[C@H](NC(=O)[C@H](CCCCN)NC(=O)[C@@H](NC(=O)[C@@H](NC(=O)[C@@H]1CCCN1C(=O)[C@@H](NC(=O)CNC(=O)[C@@H](NC(=O)[C@H](CC(=O)O)NC(=O)[C@H](CC(=O)O)NC(=O)[C@H](CCCCN)NC(=O)[C@@H](N)CCC(=O)O)[C@@H](C)O)[C@@H](C)O)[C@@H](C)CC)[C@@H](C)O)C(=O)N[C@@H](CCC(=O)O)C(=O)N[C@@H](CC(C)C)C(=O)N[C@H](C(=O)N1CCC[C@H]1C(=O)N[C@@H](CO)C(=O)N[C@@H](Cc1c[nH]cn1)C(=O)O)C(C)C [E-18-H] (H-EKDDTGTPITKIELVPSH-OH) — lower, 104 ± 5.01%
- CSCC[C@H](NC(=O)[C@H](CCC(=O)O)NC(=O)[C@H](CCCCN)NC(=O)[C@@H](N)Cc1c[nH]cn1)C(=O)N1CCC[C@H]1C(=O)N[C@@H](Cc1ccccc1)C(=O)N1CCC[C@H]1C(=O)N[C@@H](CCCCN)C(=O)N[C@@H](Cc1ccc(O)cc1)C(=O)N1CCC[C@H]1C(=O)N[C@H](C(=O)N[C@@H](CCC(=O)O)C(=O)N1CCC[C@H]1C(=O)N[C@@H](Cc1ccccc1)C(=O)N[C@H](C(=O)N[C@@H](CCC(=O)O)C(=O)N[C@@H](CO)C(=O)N[C@@H](CCC(N)=O)C(=O)O)[C@@H](C)O)C(C)C [H-18-Q] (H-HKEMPFPKYPVEPFTESQ-OH) — lower, 91.9 ± 8.99%
- CC[C@H](C)[C@H](NC(=O)[C@H](CCCCN)NC(=O)[C@H](CCCCN)NC(=O)[C@H](CC(C)C)NC(=O)[C@@H](N)Cc1ccccc1)C(=O)N[C@@H](CO)C(=O)N[C@@H](CCC(N)=O)C(=O)N[C@@H](CCCNC(=N)N)C(=O)N[C@@H](Cc1ccc(O)cc1)C(=O)N[C@@H](CCC(N)=O)C(=O)N[C@@H](CCCCN)C(=O)N[C@@H](Cc1ccccc1)C(=O)O [F-12-F] (H-FLKKISQRYQKF-OH) — within error, 97.7 ± 19.2%
- CC(C)C[C@H](NC(=O)[C@@H](NC(=O)[C@H](CCCCN)NC(=O)[C@H](CO)NC(=O)[C@H](CCC(N)=O)NC(=O)[C@@H](N)CO)C(C)C)C(=O)N1CCC[C@H]1C(=O)N[C@H](C(=O)N1CCC[C@H]1C(=O)N[C@@H](CCC(N)=O)C(=O)N[C@@H](CCCCN)C(=O)N[C@@H](C)C(=O)N[C@H](C(=O)N1CCC[C@H]1C(=O)N[C@@H](Cc1ccc(O)cc1)C(=O)N1CCC[C@H]1C(=O)N[C@@H](CCC(N)=O)C(=O)O)C(C)C)C(C)C [S-17-Q] (H-SQSKVLPVPQKAVPYPQ-OH) — lower, 101 ± 7.46%
- CC[C@H](C)[C@H](NC(=O)CNC(=O)[C@H](Cc1ccc(O)cc1)NC(=O)[C@H](CO)NC(=O)[C@@H]1CCCN1C(=O)[C@H](Cc1ccc(O)cc1)NC(=O)[C@H](CCCNC(=N)N)NC(=O)[C@H](CO)NC(=O)[C@H](CC(C)C)NC(=O)[C@@H](NC(=O)[C@H](Cc1ccc(O)cc1)NC(=O)[C@@H](N)CCC(N)=O)C(C)C)C(=O)N[C@@H](CC(N)=O)C(=O)O [Q-13-N] (H-QYVLSRYPSYGIN-OH) — within error, 104 ± 6.64%
- CC(C)[C@H](NC(=O)[C@H](CCC(=O)O)NC(=O)[C@@H]1CCCN1C(=O)[C@H](Cc1ccccc1)NC(=O)[C@@H]1CCCN1)C(=O)N[C@@H](Cc1ccccc1)C(=O)NCC(=O)N[C@@H](CCCCN)C(=O)N[C@@H](CCC(=O)O)C(=O)O [P-9-E] (H-PFPEVFGKE-OH) — within error, 101 ± 14.5%
